Patent publication US9617244B2, “Antibacterial quinoline derivatives” (JANSSEN PHARMACEUTICA NV, priority 2012, dated 2017)
In brackets after ≈: the same amount, converted by molar mass.

Experiments:
[1] = system: Mycobacterium smegmatis (ATCC607); test: In-vitro anti-bacterial activity against strain M. Smegmatis ATCC607; format: cell-based; conditions: 90% inhibitory concentration for bacterial growth, Alamar Blue fluorescence; for IC90 MSM 607: 48 hours; for IC90: Mycolicibacterium smegmatis, ATCC607, 48 h, read-out: IC90 MSM 607
Summary of the method: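 IC90 (μg/ml) derived from Alamar Blue fluorescence (530/590 nm) after 48 h growth at 37 °C under 5% CO2. About 250 CFU per well in Mueller-Hinton broth faced five-fold serial compound dilutions in BSA-containing wells.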

[2] = system: Staphylococcus aureus (ATCC29213); test: In-vitro anti-bacterial activity, microtitre plate assay, IC90 determination (non-mycobacterial strains); format: cell-based; conditions: 90% inhibitory concentration for bacterial growth, resazurin fluorescence; for IC90 STA B29213: 24 hours; for IC90: Staphylococcus aureus, ATCC29213, 24 h, read-out: IC90 STA B29213
Summary of the method: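 Growth inhibition measured fluorometrically with resazurin (530/590 nm) after overnight 37 °C incubation under normal atmosphere. Bacteria added at roughly 100 TCID50 per well in Mueller-Hinton broth to five-fold compound dilution series; IC90 reported in μg/ml.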

| SMILES | IC90 MSM 607 [1] [µg/mL] | melting point [°C] | IC90 STA B29213 [2] [µg/mL] | IC90 [1] [µg/mL] | IC90 [2] [µg/mL] |
| --- | --- | --- | --- | --- | --- |
| COc1nc2ccc(SC)cc2cc1[C@@H](c1ccc(Cl)cc1)C1(O)CCNCC1(C)C (stereo in doubt) [Compound 62] | – | 212 | – | 4.57 (≈ 10 µM) | 5.75 (≈ 12.6 µM) |
| COc1nc2ccc(Cl)cc2cc1C(c1ccc(Cl)cc1)C1(O)CCN(C(C)c2ccccc2)C(CO)C1 (stereo not drawn) [Compound 9] | – | 182 | – | 3.48 (≈ 6.31 µM) | 4.92 (≈ 8.92 µM) |
| COc1nc2ccc(Br)cc2cc1C(c1ccc(Cl)cc1)C1(O)CCNC(C)C1 (stereo not drawn) [Compound 11] | – | 143 | – | 3 (≈ 6.3 µM) | 3 (≈ 6.3 µM) |
| COc1nc2ccc(Cl)cc2cc1C(c1ccc(Cl)cc1)C1(O)CCNC(CO)C1 (stereo not drawn) [Compound 12] | – | 135 | – | 2.82 (≈ 6.3 µM) | 7.09 (≈ 15.8 µM) |
| COc1nc2ccc(F)cc2cc1C(c1ccc(Cl)cc1)C1(O)CCN(C(C)c2ccccc2)C(CO)C1 (stereo not drawn) [Compound 13] | – | 162 | – | 4.77 (≈ 8.91 µM) | 8.48 (≈ 15.8 µM) |
| COc1nc2ccc(Br)cc2cc1C(c1ccc(Cl)cc1)C1(O)CCNC(Cc2ccccc2)C1 (stereo not drawn) [Compound 31] | 1.90 (≈ 3.44 µM) | 183 | – | – | 3.48 (≈ 6.31 µM) |
| COc1nc2ccc(Br)cc2cc1C(c1ccc(Cl)cc1)C1(O)CCNC(Cc2ccccc2)C1 (stereo not drawn) [Compound 33] | >3.48 | 177 | 3.48 (≈ 6.31 µM) | – | – |
| COc1nc2ccc(-c3cccnc3)cc2cc1C(c1cccc(Cl)c1)C1(O)CCNC(Cc2ccccc2)C1 (stereo not drawn) [Compound 36] | – | 120 | – | 2.19 (≈ 3.98 µM) | 3.47 (≈ 6.31 µM) |
| COc1nc2ccc(Cl)cc2cc1C(c1ccc(Cl)cc1)C1(O)CCNC(Cc2ccccc2)C1 (stereo not drawn) [Compound 37] | 0.90 (≈ 1.77 µM) | 107 | 1.14 (≈ 2.25 µM) | – | – |
| COc1nc2ccc(F)cc2cc1C(c1ccc(Cl)cc1)C1(O)CCNC(Cc2ccccc2)C1 (stereo not drawn) [Compound 52] | 0.62 (≈ 1.26 µM) | 176 | 1.23 (≈ 2.51 µM) | – | – |
| CS(=O)(=O)c1ccc2[nH]c(=O)c(C(c3ccc(Cl)cc3)C3(O)CCNC(Cc4ccc(F)cc4)C3)cc2c1 (stereo not drawn) [Compound 56] | >13.94 | 140 | >13.94 | – | – |
| COc1nc2ccc(Br)cc2cc1C(c1ccc(Cl)cc1)C1(O)CCNC(Cc2ccccn2)C1 (stereo not drawn) [Compound 60] | 1.39 (≈ 2.51 µM) | 161 | – | – | 2.77 (≈ 5.01 µM) |
| CCCN(C)CC1CC(O)(C(c2ccc(Cl)cc2)c2cc3cc(Cl)ccc3nc2OC)CCN1 (stereo not drawn) [Compound 63] | 1.59 (≈ 3.16 µM) | 157 | 3.17 (≈ 6.31 µM) | – | – |
| COc1nc2ccc(S(C)(=O)=O)cc2cc1C(c1ccc(Cl)cc1)C1(O)CCNCC1Cc1cccc[n+]1[O-] (stereo not drawn) [Compound 65] | – | 240 | – | > 14.3 | > 14.3 |
| COc1nc2ccc(S(C)(=O)=O)cc2cc1C(c1ccc(Cl)cc1)C1(O)CCNCC1Cc1cccc[n+]1[O-] (stereo not drawn) [Compound 66] | >14.27 | 184 | >14.27 | – | – |
| CCn1c(=O)c(C(c2ccc(Cl)cc2)C2(O)CCNC(Cc3ccccc3)C2)cc2cc(Br)ccc21 (stereo not drawn) [Compound 82] | 1.60 (≈ 2.83 µM) | 230 | 2.84 (≈ 5.02 µM) | – | – |
| CCn1c(=O)c(C(c2ccc(Cl)cc2)C2(O)CCNC(Cc3ccccc3)C2)cc2cc(Br)ccc21 (stereo not drawn) [Compound 83] | 3.57 (≈ 6.31 µM) | 219 | 7.12 (≈ 12.6 µM) | – | – |
| CN1CCC(O)(C(c2ccc(Cl)cc2)c2cc3cc(Br)ccc3[nH]c2=O)CC1Cc1ccccc1 (stereo not drawn) [Compound 84] | – | 238 | – | 5.52 (≈ 10 µM) | 6.95 (≈ 12.6 µM) |
| COc1nc2ccc(Cl)cc2cc1C(c1ccc(Cl)cc1)C1(O)CCNC(Cc2ccccc2)C1 (stereo not drawn) [Compound 96] | – | 114 | 1.60 (≈ 3.15 µM) | 1.01 (≈ 1.99 µM) | – |
| COc1nc2ccc(Br)cc2cc1C(c1ccc(SC)cc1)C1(O)CCNC(Cc2ccccc2)C1 (stereo not drawn) [Compound 100] | 7.09 (≈ 12.6 µM) | 143 | 7.09 (≈ 12.6 µM) | – | – |
| COc1nc2ccc(Br)cc2cc1C(c1ccc(Cl)cc1)C1(O)CCNC(C)C1 (stereo not drawn) [Compound 124] | – | 164 | – | 3 (≈ 6.3 µM) | 3 (≈ 6.3 µM) |
| COc1nc2ccc(SC)cc2cc1C(c1ccccc1)C1(O)CCNC(Cc2ccccc2)C1 (stereo not drawn) [Compound 142] | 2.16 (≈ 4.46 µM) | 190 | 3.06 (≈ 6.31 µM) | – | – |
| CS(=O)(=O)c1ccc2[nH]c(=O)c(C(c3ccccc3)C3(O)CCNC(Cc4ccccc4)C3)cc2c1 (stereo not drawn) [Compound 153] | – | 183 | – | > 12.6 | > 12.6 |
| CS(=O)(=O)c1ccc2[nH]c(=O)c(C(c3ccccc3)C3(O)CCNC(Cc4ccccc4)C3)cc2c1 (stereo not drawn) [Compound 154] | >12.63 | 250 | >12.63 | – | – |
| CS(=O)(=O)c1ccc2[nH]c(=O)c(C(c3ccccc3)C3(O)CCNC(Cc4ccccc4)C3)cc2c1 (stereo not drawn) [Compound 155] | >12.63 | 194 | >12.63 | – | – |
| CS(=O)(=O)c1ccc2[nH]c(=O)c(C(c3ccccc3)C3(O)CCNC(Cc4ccccc4)C3)cc2c1 (stereo not drawn) [Compound 156] | 11.25 (≈ 22.4 µM) | 254 | >12.63 | – | – |

Now from value to compound:

| IC90 MSM 607 [1] [µg/mL] | melting point [°C] | IC90 STA B29213 [2] [µg/mL] | IC90 [1] [µg/mL] | IC90 [2] [µg/mL] | SMILES |
| --- | --- | --- | --- | --- | --- |
| 13.20 (≈ 25.1 µM) | 126 | 13.20 (≈ 25.1 µM) | – | – | COc1nc2ccc(Cl)cc2cc1C(c1ccc(Cl)cc1)C1(O)CCNC(c2ccc(F)cc2C)C1 (single isomer, unassigned) [Compound 2] |
| 0.83 (≈ 1.58 µM) | 146 | 0.83 (≈ 1.58 µM) | – | – | COc1nc2ccc(Cl)cc2cc1C(c1ccc(Cl)cc1)C1(O)CCNC(c2ccc(F)cc2C)C1 (single isomer, unassigned) [Compound 3] |
| 2.20 (≈ 3.99 µM) | 152 | 3.48 (≈ 6.31 µM) | – | – | COc1nc2ccc(Br)cc2cc1C(c1cccc(Cl)c1)C1(O)CCNC(Cc2ccccc2)C1 (stereo not drawn) [Compound 34] |
| 3.59 (≈ 6.31 µM) | 148 | 7.16 (≈ 12.6 µM) | – | – | COc1nc2ccc(S(C)(=O)=O)cc2cc1C(c1cccc(Cl)c1)C1(O)CCNC(c2ccc(F)cc2C)C1 (stereo not drawn) [Compound 44] |
| 1.14 (≈ 2 µM) | 160 | 1.80 (≈ 3.16 µM) | – | – | COc1nc2ccc(S(C)(=O)=O)cc2cc1C(c1cccc(Cl)c1)C1(O)CCNC(c2ccc(F)cc2C)C1 (stereo not drawn) [Compound 45] |
| 1.80 (≈ 3.16 µM) | 145 | 3.59 (≈ 6.31 µM) | – | – | COc1nc2ccc(S(C)(=O)=O)cc2cc1C(c1cccc(Cl)c1)C1(O)CCNC(c2ccc(F)cc2C)C1 (stereo not drawn) [Compound 46] |
| 5.69 (≈ 10 µM) | 174 | 14.30 (≈ 25.1 µM) | – | – | COc1nc2ccc(S(C)(=O)=O)cc2cc1C(c1cccc(Cl)c1)C1(O)CCNC(c2ccc(F)cc2C)C1 (stereo not drawn) [Compound 47] |
| 2.46 (≈ 5.01 µM) | 102 | 1.55 (≈ 3.16 µM) | – | – | COc1nc2ccc(F)cc2cc1C(c1ccc(Cl)cc1)C1(O)CCNC(Cc2ccccc2)C1 (stereo not drawn) [Compound 53] |
| 0.85 (≈ 1.59 µM) | 141 | 1.69 (≈ 3.16 µM) | – | – | COc1nc2ccc(Br)cc2cc1C(c1ccccc1)C1(O)CCNC(c2ccc(F)cc2C)C1 (stereo not drawn) [Compound 61] |
| 13.84 (≈ 25.1 µM) | 120 | >13.84 | – | – | COc1nc2ccc(S(C)(=O)=O)cc2cc1C(c1ccc(Cl)cc1)C1(O)CCNC(Cc2ccccc2)C1 (stereo not drawn) [Compound 97] |
| 14.96 (≈ 25.1 µM) | 135 | 14.96 (≈ 25.1 µM) | – | – | COc1nc2ccc(Br)cc2cc1C(c1ccc(S(C)(=O)=O)cc1)C1(O)CCNC(Cc2ccccc2)C1 (stereo not drawn) [Compound 103] |
| – | 160 | – | 1.14 (≈ 2 µM) | 1.8 (≈ 3.16 µM) | COc1nc2ccc(Br)cc2cc1C(c1ccc(Cl)cc1)C1(O)CCNC(c2ccc(F)cc2C)C1 (stereo not drawn) [Compound 104] |
| 0.90 (≈ 1.58 µM) | 149 | 1.80 (≈ 3.16 µM) | – | – | COc1nc2ccc(Br)cc2cc1C(c1ccc(Cl)cc1)C1(O)CCNC(c2ccc(F)cc2C)C1 (stereo not drawn) [Compound 105] |
| – | 100 | – | > 13 | > 13 | COc1nc2ccc(S(C)(=O)=O)cc2cc1C(c1ccccc1)C1(O)CCNC(Cc2ccccc2)C1 (stereo not drawn) [Compound 157] |
| >12.98 | 198 | >12.98 | – | – | COc1nc2ccc(S(C)(=O)=O)cc2cc1C(c1ccccc1)C1(O)CCNC(Cc2ccccc2)C1 (stereo not drawn) [Compound 158] |
| 1.42 (≈ 2.82 µM) | 169 | 3.17 (≈ 6.31 µM) | – | – | COc1nc2ccc(SC)cc2cc1C(c1ccccc1)C1(O)CCNC(c2ccc(F)cc2C)C1 (stereo not drawn) [Compound 168] |
| 5.69 (≈ 10 µM) | 161 | 7.16 (≈ 12.6 µM) | – | – | COc1nc2ccc(S(C)(=O)=O)cc2cc1C(c1cccc(Cl)c1)C1(O)CCNC(c2ccc(F)cc2C)C1 (stereo not drawn) [Compound 171] |
| 3.59 (≈ 6.31 µM) | 170 | 7.16 (≈ 12.6 µM) | – | – | COc1nc2ccc(S(C)(=O)=O)cc2cc1C(c1cccc(Cl)c1)C1(O)CCNC(c2ccc(F)cc2C)C1 (stereo not drawn) [Compound 172] |
